From patent US11891387B2, “Monoacylglycerol lipase modulators” (Janssen Pharmaceutica NV, priority 2020, dated 2024)

Biological target: human MGL from HeLa cells (Homo sapiens (Human), UniProt Q99685)
Experiment: MGL in vitro activity assay: cleavage of [glycerol-1,3-3H]-oleyl glycerol, activated carbon filtration
Format: biochemical
Settings: 300 nM [Glycerol-1,3-3H]-oleyl glycerol, endogenously expressed MGL from HeLa cells, one hour incubation
Outline: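 Endogenous human MGL from HeLa cells or homogenates was incubated with compound and 300 nM [glycerol-1,3-3H]-oleyl glycerol for one hour. Released [3H]-glycerol passing an activated carbon filter was counted as the measure of activity. Screening used 10 μM compound, with IC50 top concentration set empirically.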

Sequence of human MGL from HeLa cells (Q99685 whole entry): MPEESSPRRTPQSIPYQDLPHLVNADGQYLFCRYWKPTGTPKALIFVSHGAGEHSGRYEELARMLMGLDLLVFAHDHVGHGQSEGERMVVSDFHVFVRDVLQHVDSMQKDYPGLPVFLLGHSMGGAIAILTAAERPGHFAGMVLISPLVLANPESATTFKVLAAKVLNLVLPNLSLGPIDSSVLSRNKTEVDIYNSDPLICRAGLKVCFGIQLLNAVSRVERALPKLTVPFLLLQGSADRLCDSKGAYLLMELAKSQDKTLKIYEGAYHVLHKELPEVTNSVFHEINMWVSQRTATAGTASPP

IC50 [nM] | Structure (SMILES)
230 | Cc1ccc2c(F)c(C(=O)N3CCc4c(nn(C)c4-c4cc(C(F)(F)F)nn4C)[C@@H]3C)ccc2n1 [Example 90, (S)-(2,7-dimethyl-3-(1-methyl-3-(trifluoromethyl)-1H-pyrazol-5-yl)-2,4,5,7-tetrahydro-6H-pyrazolo[3,4-c]pyridin-6-yl)(5-fluoro-2-methylquinolin-6-yl)methanone]
210 | Cc1ccc2cc(C(=O)N3CCc4c(nn(C)c4-c4cc(C(F)(F)F)nn4C)[C@@H]3C)c(F)cc2n1 [Example 91, (S)-(2,7-Dimethyl-3-(1-methyl-3-(trifluoromethyl)-1H-pyrazol-5-yl)-2,4,5,7-tetrahydro-6H-pyrazolo[3,4-c]pyridin-6-yl)(7-fluoro-2-methylquinolin-6-yl)methanone]
380 | Cc1ccc2c(C)c(C(=O)N3CCc4c(nn(C)c4-c4cc(C(F)(F)F)nn4C)[C@@H]3C)ccc2n1 [Example 92, (S)-(2,7-Dimethyl-3-(1-methyl-3-(trifluoromethyl)-1H-pyrazol-5-yl)-2,4,5,7-tetrahydro-6H-pyrazolo[3,4-c]pyridin-6-yl)(2,5-dimethylquinolin-6-yl)methanone]
1210 | Cc1ccc2cc(C(=O)N3CCc4c(nn(C)c4-c4cc(C(F)(F)F)nn4C)[C@@H]3C)c(C)cc2n1 [Example 93, (S)-(2,7-Dimethyl-3-(1-methyl-3-(trifluoromethyl)-1H-pyrazol-5-yl)-2,4,5,7-tetrahydro-6H-pyrazolo[3,4-c]pyridin-6-yl)(2,7-dimethylquinolin-6-yl)methanone]
650 | Cc1ccc(C(=O)N2CCc3c(nn(C)c3-c3cc(C(F)(F)F)nn3C)[C@@H]2C)c(OC(F)(F)F)c1 [Example 110, (S)-(2,7-Dimethyl-3-(1-methyl-3-(trifluoromethyl)-1H-pyrazol-5-yl)-2,4,5,7-tetrahydro-6H-pyrazolo[3,4-c]pyridin-6-yl)(4-methyl-2-(trifluoromethoxy)phenyl)methanone]
86 | C[C@H]1c2nn(C)c(-c3cc(C(F)(F)F)nn3C)c2CCN1C(=O)c1cccc(OC(F)(F)F)c1F [Example 112, (S)-(2,7-Dimethyl-3-(1-methyl-3-(trifluoromethyl)-1H-pyrazol-5-yl)-2,4,5,7-tetrahydro-6H-pyrazolo[3,4-c]pyridin-6-yl)(2-fluoro-3-(trifluoromethoxy)phenyl)methanone]
9900 | C[C@H]1c2nn(C)c(-c3cc(C(F)(F)F)nn3C)c2CCN1C(=O)c1ccc(OC(F)(F)F)cc1Cl [Example 113, (S)-(2-Chloro-4-(trifluoromethoxy)phenyl)(2,7-dimethyl-3-(1-methyl-3-(trifluoromethyl)-1H-pyrazol-5-yl)-2,4,5,7-tetrahydro-6H-pyrazolo[3,4-c]pyridin-6-yl)methanone]

The remaining lines, values behind:

Structure (SMILES) | IC50 [nM]
Cn1nc(-c2c3c(nn2C)[C@@H]2CCC[C@H](C3)N2C(=O)c2ccc3ncccc3c2)cc1C(F)(F)F [Example 87, ((5R,9S)-2-Methyl-3-(1-methyl-5-(trifluoromethyl)-1H-pyrazol-3-yl)-4,5,6,7,8,9-hexahydro-2H-5,9-epiminocycloocta[c]pyrazol-10-yl)(quinolin-6-yl)methanone] | 17
Cc1cc(C(=O)N2[C@@H]3CCC[C@H]2c2nn(C)c(-c4cc(C(F)(F)F)n(C)n4)c2C3)c2cc(F)ccc2n1 [Example 88, (6-Fluoro-2-methylquinolin-4-yl)((5R,9S)-2-methyl-3-(1-methyl-5-(trifluoromethyl)-1H-pyrazol-3-yl)-4,5,6,7,8,9-hexahydro-2H-5,9-epiminocycloocta[c]pyrazol-10-yl)methanone] | 6.6
COc1cccc(C(=O)N2[C@@H]3CC[C@H]2c2nn(C)c(-c4cc(C(F)(F)F)nn4C)c2C3)c1C [Example 89, (3-Methoxy-2-methylphenyl)((5R,8S)-2-methyl-3-(1-methyl-3-(trifluoromethyl)-1H-pyrazol-5-yl)-2,4,5,6,7,8-hexahydro-5,8-epiminocyclohepta[c]pyrazol-9-yl)methanone] | 66
Cc1cc(C)c2cc(C(=O)N3CCc4c(nn(C)c4-c4cc(C(F)(F)F)nn4C)[C@@H]3C)ccc2n1 [Example 94, (S)-(2,7-Dimethyl-3-(1-methyl-3-(trifluoromethyl)-1H-pyrazol-5-yl)-2,4,5,7-tetrahydro-6H-pyrazolo[3,4-c]pyridin-6-yl)(2,4-dimethylquinolin-6-yl)methanone] | 39
COc1cc(C)nc2ccc(C(=O)N3CCc4c(nn(C)c4-c4cc(C(F)(F)F)nn4C)[C@@H]3C)cc12 [Example 95, (S)-(2,7-Dimethyl-3-(1-methyl-3-(trifluoromethyl)-1H-pyrazol-5-yl)-2,4,5,7-tetrahydro-6H-pyrazolo[3,4-c]pyridin-6-yl)(4-methoxy-2-methylquinolin-6-yl)methanone] | 10000
C[C@H]1c2nn(C)c(-c3cc(C(F)(F)F)n(C)n3)c2CCN1C(=O)c1cccc2cnn(C)c12 [Example 117, (S)-(2,7-Dimethyl-3-(1-methyl-5-(trifluoromethyl)-1H-pyrazol-3-yl)-2,4,5,7-tetrahydro-6H-pyrazolo[3,4-c]pyridin-6-yl)(1-methyl-1H-indazol-7-yl)methanone] | 160
C[C@H]1c2nn(C)c(-c3cc(C(F)(F)F)n(C)n3)c2CCN1C(=O)c1ccnc2c1cnn2C [Example 118, (S)-(2,7-Dimethyl-3-(1-methyl-5-(trifluoromethyl)-1H-pyrazol-3-yl)-2,4,5,7-tetrahydro-6H-pyrazolo[3,4-c]pyridin-6-yl)(1-methyl-1H-pyrazolo[3,4-b]pyridin-4-yl)methanone] | 47
C[C@H]1c2nn(C)c(-c3cc(C(F)(F)F)n(C)n3)c2CCN1C(=O)c1ccc2ncsc2c1 [Example 120, (S)-Benzo[d]thiazol-6-yl(2,7-dimethyl-3-(1-methyl-5-(trifluoromethyl)-1H-pyrazol-3-yl)-2,4,5,7-tetrahydro-6H-pyrazolo[3,4-c]pyridin-6-yl)methanone] | 46
COc1nccc(C(=O)N2CCc3c(nn(C)c3-c3cc(C(F)(F)F)n(C)n3)[C@@H]2C)c1C [Example 121, (S)-(2,7-Dimethyl-3-(1-methyl-5-(trifluoromethyl)-1H-pyrazol-3-yl)-2,4,5,7-tetrahydro-6H-pyrazolo[3,4-c]pyridin-6-yl)(2-methoxy-3-methylpyridin-4-yl)methanone] | 83
C[C@H]1c2nn(C)c(-c3cc(C(F)(F)F)nn3C)c2CCN1C(=O)c1cc2scnc2cn1 [Example 122, (S)-(2,7-Dimethyl-3-(1-methyl-3-(trifluoromethyl)-1H-pyrazol-5-yl)-2,4,5,7-tetrahydro-6H-pyrazolo[3,4-c]pyridin-6-yl)(thiazolo[4,5-c]pyridin-6-yl)methanone] | 260
C[C@H]1c2nn(C)c(-c3cc(C(F)(F)F)nn3C)c2CCN1C(=O)c1cnc2ncsc2c1 [Example 123, (S)-(2,7-Dimethyl-3-(1-methyl-3-(trifluoromethyl)-1H-pyrazol-5-yl)-2,4,5,7-tetrahydro-6H-pyrazolo[3,4-c]pyridin-6-yl)(thiazolo[4,5-b]pyridin-6-yl)methanone] | 950
Cc1cc(C(=O)N2CCc3c(nn(C)c3-c3cc(C(F)(F)F)n(C)n3)[C@@H]2C)c2cc(F)ccc2n1 [Example 132, (S)-(2,7-Dimethyl-3-(1-methyl-5-(trifluoromethyl)-1H-pyrazol-3-yl)-2,4,5,7-tetrahydro-6H-pyrazolo[3,4-c]pyridin-6-yl)(6-fluoro-2-methylquinolin-4-yl)methanone] | 27
